Experimental data as given in patent publication US20220193201A1, “GLP-1R AGONIST REDUCES RETINAL INFLAMMATION AND NEURON DEATH SECONDARY TO OCULAR HYPERTENSION” (THE TRUSTEES OF THE UNIVERSITY OF PENNSYLVANIA, priority 2020, published 2022).

Tests used:
[1] = system: retinal ganglion cells (RGCs); assay: Retinal ganglion cell counting on retinal flatmounts (Brn3a, Rbpms), microbead eIOP model, subcutaneous NLY01; format: in vivo, mouse; conditions: 42 days; NLY01 5 mg/kg twice weekly vs NSS; bead eye normalized to BSS eye
[2] = system: NFκB; conditions: GLP-1R-dependent manner; cited from earlier work
[3] = system: CD11b+ CD11c− cells; assay: qPCR of Il1a, Tnf, C1qa mRNA in CD11b+ CD11c- cells sorted from neurosensory retina of microbead-injected mice; format: in vivo, mouse; conditions: NLY01 5 mg/kg s.c. twice weekly vs NSS
[4] = Intraocular pressure (IOP) measurement in microbead-induced ocular hypertension mouse glaucoma model; conditions: NLY01 5 mg/kg s.c. twice weekly vs normal saline; IOP across the study
[5] = system: ACSA2+ cells (astrocyte and Müller cell enriched); assay: qPCR of pan reactive, A1-specific transcripts and C3 in ACSA2+ retinal cells of microbead-injected mice; format: in vivo, mouse; conditions: NLY01 5 mg/kg s.c. twice weekly vs NSS
[6] = system: CD11b+ CD11c+ cells; assay: qPCR of Il1a, Tnf, C1qa mRNA in CD11b+ CD11c+ cells sorted from neurosensory retina of microbead-injected mice; format: in vivo, mouse; conditions: NLY01 5 mg/kg s.c. twice weekly vs NSS
[7] = system: NFκB; assay: phospho-NFκB/total NFκB ELISA and NFκBIA (IκBα) qPCR in sorted CD11b+ retinal cells of microbead-injected mice; format: in vivo, mouse; conditions: 42nd day post-injection; CD11b+ CD11c− and CD11b+ CD11c+ cells; NLY01 5 mg/kg s.c. twice weekly vs NSS
Method: FIGS. 11A-11D show NLY01 modulates NFκB signaling in CD11b+ CD11c− and CD11b+ CD11c+ cells. Related to FIGS. 4A-4H and 5A-5H. C57BL6/J (WT) mice were injected either with microbeads (“Bead”, left eye), to increase intraocular pressure (IOP), or with BSS (right eye). Following intraocular injections, mice were randomized to twice weekly subcutaneous NLY01 (5 mg kg^−1 per injection) or normal saline solution (NSS). 42 days post-injection mice were euthanized, neurosensory retina (“NSR”) was harvested and sorted as described in FIG. 9A to isolate CD11b+CD11c− and CD11b+ CD11c+ cells. […] All data presented as mean±SEM. Ordinary one-way ANOVA, *p<0.05, **p<0.01, ***p<0.001, ****p<0.0001.
ACSA2+, CD11b+ CD11c−, and CD11b+ CD11c+ cells were isolated from adult murine retinas using the Miltenyi Adult Brain Dissociation Kit (Miltenyi Biotec, 130-107-677) and MACS magnetic cell separation system. […]
ELISA kits were used to measure protein levels of IL-1α (BMS627, Thermofisher Scientific), TNF-α (BMS607-3, Thermofisher Scientific), C1q (LS-F55223-1, LifeSpan BioSciences), C3 (ab157711, Abcam), and phospho-NFκB/total NFκB (Thermofisher Scientific, 50-246-259) according to the manufacturer's protocol. […] Protein levels were determined by comparing the absorbance produced by the samples with that of a calibration curve. […]

[8] = cited from earlier work
[9] = cited from earlier work; remark: listed apart in the source
[10] = mouse model of Parkinson's disease

Substance: NLY01: pegylated exendin-4 (exenatide); long-acting GLP-1R agonist, obtained from Neuraly
- RGC death secondary to eIOP, Brn3a+ cell counting [1]: reduced
- RGC death secondary to eIOP, RBPMS+ cell counting [1]: reduced
- nuclear translocation and phosphorylation of NFκB in brain microglia [2]: reduce
- CD11b+ CD11c− basal expression of C1q ([3]; 14th day post-injection): without altering
- CD11b+ CD11c− basal expression of IL-1a ([3]; 14th day post-injection): without altering
- CD11b+ CD11c− upregulation of TNF-α ([3]; 14th day post-injection): reduced
- CD11b+ CD11c− expression of C1q ([3]; 42nd day post-injection): reduced
- CD11b+ CD11c− expression of IL-1α ([3]; 42nd day post-injection): reduced
- CD11b+ CD11c− expression of TNF-α ([3]; 42nd day post-injection): reduced
- effect on intraocular pressure in microbead- or BSS-injected eyes [4]: no effect
- expression of A1-specific transcripts in ACSA2+ fraction ([5]; 14th day post-injection): reduced
- expression of C3 in ACSA2+ fraction ([5]; 14th day post-injection): reduced
- expression of pan reactive transcripts in ACSA2+ fraction ([5]; 14th day post-injection): reduced
- expression of A1-specific transcripts in ACSA2+ fraction ([5]; 42nd day post-injection): reduced
- expression of C3 in ACSA2+ fraction ([5]; 42nd day post-injection): reduced
- expression of pan reactive transcripts in ACSA2+ fraction ([5]; 42nd day post-injection): reduced
- CD11b+ CD11c+ expression of C1q ([6]; 14th day post-injection): reduced
- CD11b+ CD11c+ expression of IL-1α ([6]; 14th day post-injection): reduced
- CD11b+ CD11c+ expression of TNF-α ([6]; 14th day post-injection): reduced
- second cell population (CD11b+ CD11c−) expression of C1q ([6]; 42nd day post-injection): reduced
- second cell population (CD11b+ CD11c−) expression of IL-1α ([6]; 42nd day post-injection): reduced
- second cell population (CD11b+ CD11c−) expression of TNF-α ([6]; 42nd day post-injection): reduced
- mRNA levels of IκBα [7]: increased
- phosphorylated NFκB protein levels [7]: decreased
- blood-brain barrier penetration ([8]; in vivo): favorable
- half-life ([8]; in vivo): extended
- NLY01 concentrations in the brain, Parkinson's disease mouse models vs WT animals ([8]; mouse models of Parkinson's disease): higher
- microglia density [9, 10]: reduces
- relative IBA1 levels [9, 10]: reduces
- A1 astrocyte transformation ([9]; mouse models of PD): blocking
- dopaminergic cell death ([9]; mouse models of PD): reducing
- microglial production of C1q, TNF-α, and IL-1α ([9]; mouse models of PD): reduce
- motor symptoms ([9]; mouse models of PD): improving
